Data taken from the supplement of paper PMC10307832.

Tests used:
Experiment in all cases: relative viability (nuclei count vs DMSO), 5 days (fraction); higher = more cells survive
[1] = compound: COc1cc2nccc(Oc3ccc(NC(=O)C4(C(=O)Nc5ccc(F)cc5)CC4)cc3)c2cc1OC [Cabozantinib] + Nc1ncn([C@H]2C[C@H](O)[C@@H](CO)O2)c(=O)n1 [Decitabine] (partner 2 µM)
In short: (§1)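 Cells from lung cancer lines were seeded into 1536-well plates and, one day later, dosed by pin tool. Treatments were either a single drug or a fixed dose of an anchor drug with five library-drug doses (not always all listed) in √10 steps. After 5 days, nuclei were stained in a one-step fixation (final 0.05% Triton X-100, 1% formaldehyde, 1 ug/ml Hoechst) and counted on 4× images, and relative viability is the treated-to-vehicle nuclei ratio, as the median of duplicate plates.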

Zosuquidar + Phenformin = compound: O[C@@H](COc1cccc2ncccc12)CN1CCN([C@@H]2c3ccccc3[C@@H]3[C@H](c4ccccc42)C3(F)F)CC1 [Zosuquidar] + N=C(N)NC(=N)NCCc1ccccc1 [Phenformin] (partner 250 µM)
In short: as §1

Kobe2602 + Alpelisib = compound: C1=CC(=CC=C1NC(=S)NNC2=C(C=C(C=C2[N+](=O)[O-])C(F)(F)F)[N+](=O)[O-])F [Kobe2602] + Cc1nc(NC(=O)N2CCC[C@H]2C(N)=O)sc1-c1ccnc(C(C)(C)C(F)(F)F)c1 [Alpelisib] (partner 2 µM)
In short: as §1

Zosuquidar + Pictilisib = compound: O[C@@H](COc1cccc2ncccc12)CN1CCN([C@@H]2c3ccccc3[C@@H]3[C@H](c4ccccc42)C3(F)F)CC1 [Zosuquidar] + CS(=O)(=O)N1CCN(Cc2cc3nc(-c4cccc5[nH]ncc45)nc(N4CCOCC4)c3s2)CC1 [Pictilisib] (partner 1 µM)
In short: as §1

Cell Line | relative viability ([1]; first compound 0.02 µM) | relative viability ([1]; first compound 0.06325 µM) | relative viability ([1]; first compound 0.2 µM) | relative viability ([1]; first compound 0.6325 µM) | relative viability ([1]; first compound 2 µM) | relative viability (Zosuquidar + Phenformin; first compound 0.01 µM) | relative viability (Zosuquidar + Phenformin; first compound 0.03162 µM) | relative viability (Zosuquidar + Phenformin; first compound 0.1 µM) | relative viability (Zosuquidar + Phenformin; first compound 0.3162 µM) | relative viability (Zosuquidar + Phenformin; first compound 1 µM) | relative viability (Kobe2602 + Alpelisib; first compound 0.2 µM) | relative viability (Kobe2602 + Alpelisib; first compound 0.6325 µM) | relative viability (Kobe2602 + Alpelisib; first compound 2 µM) | relative viability (Kobe2602 + Alpelisib; first compound 6.325 µM) | relative viability (Kobe2602 + Alpelisib; first compound 20 µM) | relative viability (Zosuquidar + Pictilisib; first compound 0.01 µM) | relative viability (Zosuquidar + Pictilisib; first compound 0.03162 µM) | relative viability (Zosuquidar + Pictilisib; first compound 0.1 µM) | relative viability (Zosuquidar + Pictilisib; first compound 0.3162 µM) | relative viability (Zosuquidar + Pictilisib; first compound 1 µM)
NCI-H1355 | 0.401 | 0.372 | 0.33 | 0.363 | 0.367 | 0.466 | 0.438 | 0.371 | 0.502 | 0.471 | 0.791 | 0.938 | 0.79 | 0.751 | 0.845 | 0.427 | 0.375 | 0.354 | 0.546 | 0.476
NCI-H1755 | 0.729 | 0.73 | 0.757 | 0.717 | 0.742 | 0.425 | 0.621 | 0.489 | 0.624 | 0.589 | 0.906 | 0.874 | 0.919 | 0.866 | 0.956 | 0.415 | 0.452 | 0.318 | 0.497 | 0.484
NCI-H2009 | 0.305 | 0.384 | 0.447 | 0.394 | 0.405 | 0.503 | 0.47 | 0.481 | 0.518 | 0.498 | 1.12 | 1.22 | 1.13 | 1.3 | 1.18 | 0.837 | 0.88 | 0.677 | 1.02 | 0.822
NCI-H1395 | 0.786 | 0.741 | 0.682 | 0.713 | 0.654 | 0.44 | 0.482 | 0.418 | 0.497 | 0.466 | 1.05 | 1.29 | 1.09 | 1.14 | 1.03 | 0.574 | 0.556 | 0.52 | 0.683 | 0.809
HCC-78 |  | 0.704 | 0.503 | 0.489 | 0.487 | 0.801 | 0.71 |  | 0.707 | 0.558 | 0.359 | 0.359 |  | 0.391 | 0.445 | 0.211 | 0.235 |  | 0.232 | 0.402
NCI-H322M | 0.701 | 0.719 | 0.675 | 0.798 | 0.744 | 0.809 | 0.856 | 0.586 | 0.793 | 0.858 | 0.808 | 0.81 | 0.828 | 0.827 | 0.792 | 0.494 | 0.577 | 0.371 | 0.519 | 0.534
HOP-62 | 0.241 | 0.214 | 0.22 | 0.225 | 0.181 | 0.7 | 0.637 | 0.688 | 0.719 | 0.684 | 1.05 | 0.846 | 0.934 | 0.809 | 1.25 | 0.684 | 0.86 | 0.579 | 0.81 | 0.831
NCI-H838 | 0.485 | 0.479 | 0.435 | 0.469 | 0.438 | 0.568 | 0.418 | 0.432 | 0.663 | 0.576 | 0.909 | 1.01 | 0.915 | 1 | 0.976 | 0.423 | 0.428 | 0.284 | 0.488 | 0.441
LK-2 | 0.182 | 0.369 | 0.336 | 0.301 | 0.267 | 0.413 | 0.412 | 0.549 | 0.67 | 0.475 | 1.04 | 1.2 | 1.26 | 1.07 | 1.04 | 0.625 | 0.529 | 0.576 | 0.59 | 0.53
BEN | 0.63 | 0.815 | 0.7 | 0.733 | 0.566 | 0.268 | 0.245 | 0.263 | 0.265 | 0.26 | 1.07 | 1.12 | 0.947 | 0.883 | 1.03 | 0.665 | 0.606 | 0.482 | 0.534 | 0.515
NCI-H23 |  | 0.348 | 0.337 | 0.303 | 0.327 | 0.722 | 0.708 | 0.78 | 0.895 | 0.805 | 0.669 | 0.863 | 0.68 | 0.829 | 0.811 | 0.479 | 0.525 | 0.393 | 0.574 | 0.496
NCI-H1944 | 0.477 | 0.483 | 0.42 | 0.481 | 0.466 | 0.19 | 0.192 | 0.196 | 0.225 | 0.196 | 0.803 | 0.884 | 0.885 | 0.805 | 0.944 | 0.342 | 0.337 | 0.312 | 0.363 | 0.349
NCI-H1792 |  | 0.557 | 0.609 | 0.588 | 0.444 | 0.35 | 0.287 | 0.279 | 0.31 | 0.295 | 0.633 | 0.749 | 0.696 | 0.615 | 0.679 | 0.355 | 0.267 | 0.243 | 0.311 | 0.335
NCI-H2085 | 0.583 | 0.549 | 0.58 | 0.626 | 0.642 | 0.736 | 0.682 | 0.479 | 0.877 | 0.69 | 1.04 | 0.99 | 0.894 | 1.01 | 1.05 | 0.446 | 0.543 | 0.441 | 0.474 | 0.478
LC-2-ad | 0.814 | 0.811 | 0.772 | 0.633 | 0.539 | 0.584 | 0.561 | 0.576 | 0.626 | 0.55 | 0.846 | 0.866 | 0.916 | 0.883 | 1.01 | 0.386 | 0.566 | 0.41 | 0.493 | 0.524
